Here are results for 10 molecules from ChEMBL document CHEMBL1201862, “PubChem BioAssay data set” (2004).

Broadly, the GI50 is the concentration at which growth is held to half of that of the control.

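1) Cells in 96-well plates. 2) Compound, 48 h, 5 concentrations. 3) Linear interpolation between surrounding doses. 4) Unreached endpoint = highest concentration. GI50 is the concentration that inhibits growth by half.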 Calls of active or inactive are those of the source. Rule as the data show it: active = GI50 up to about 1.1 µM and inactive = higher.

Some test systems named below: A498; CCRF-CEM; HL-60; HOP-62; MDA-MB-231; MDA-MB-435; MOLT-4; NCI-H460; NCI-H522; NCI/ADR-RES; OVCAR-5; PC-3; RPMI-8226; SF-268; SK-MEL-5; SK-OV-3; SNB-19; SNB-75; SR; UO-31.
Holding throughout (assay): DTP human tumour cell line panel, 48 h

Turning to `COc1cc(C(=O)O[C@@H]2[C@@H](OC(=O)c3cc(OC)c(OC)c(OC)c3)[C@@H](OC)O[C@@H]3CO[C@@H](c4ccccc4)O[C@@H]23)cc(OC)c1OC`, the GI50 in the test with A498, with CCRF-CEM, in the test on HL-60, with HOP-62, in the test on MDA-MB-231 and in the test with MDA-MB-435 was > 100 µM (inactive) throughout. For the same molecule, the GI50 in the test on MOLT-4, in the test on NCI-H460, with NCI-H522, with NCI/ADR-RES, in the test with OVCAR-5 and in the test on PC-3 was > 100 µM (inactive) in each case. For the same molecule, the GI50 in the test on RPMI-8226 was > 100 µM (inactive); in the test on SF-268, > 100 µM (inactive); in the test with SK-MEL-5 it was > 100 µM (inactive); with SK-OV-3 it was > 100 µM (inactive); with SNB-19, > 100 µM (inactive); in the test on SNB-75 it was 29.6 µM (inactive). In addition, the GI50 in the test with SR and in the test on UO-31 was > 100 µM (inactive) each time.

As for `O=CC(O)C(O)C1OC(=O)c2cc(O)c(O)c(O)c2C2=C(O)C(O)=C3OC(=O)c4c(c(O)c(O)c5c4C3C2C(=O)O5)-c2c(cc(O)c(O)c2O)C(=O)OCC1O` (configuration not stated), the GI50 in the test with A498 is 44.9 µM (inactive); with CCRF-CEM, 20.4 µM (inactive); in the test on HL-60, 12.3 µM (inactive); with HOP-62, 72.6 µM (inactive); in the test on MDA-MB-231, 19.1 µM (inactive); in the test with MDA-MB-435 it was 16.5 µM (inactive). In addition, the GI50 was 20.7 µM (inactive) in the test on MOLT-4; 26.2 µM (inactive) in the test with NCI-H460; 35.6 µM (inactive) in the test with NCI-H522; 88.5 µM (inactive) with NCI/ADR-RES; 24 µM (inactive) with OVCAR-5; 43.7 µM (inactive) in the test with PC-3. For the same molecule, the GI50 was 24.5 µM (inactive) in the test on RPMI-8226; 28.4 µM (inactive) in the test on SF-268; 25.9 µM (inactive) in the test with SK-MEL-5; 25.9 µM (inactive) in the test on SK-OV-3; 57.8 µM (inactive) in the test with SNB-19; 27.4 µM (inactive) in the test with SNB-75. For the same molecule, the GI50 in the test on SR was 24.1 µM (inactive); in the test on UO-31, 14.7 µM (inactive).

In the case of `CC1C(c2ccc3c(c2)OCO3)c2cc3c(cc2OC1N1CCOCC1)OCO3` (configuration not stated), the GI50 with A498 was 22.4 µM (inactive); in the test on CCRF-CEM, 19 µM (inactive); in the test with HL-60 it was 13.8 µM (inactive); with HOP-62, 34.4 µM (inactive); in the test on MDA-MB-231, 18.4 µM (inactive); with MDA-MB-435 it was 5.6 µM (inactive). In addition, the GI50 is 16.7 µM (inactive) in the test on MOLT-4; 29.2 µM (inactive) in the test on NCI-H460; 9.04 µM (inactive) with NCI-H522; 15.8 µM (inactive) with NCI/ADR-RES; 46.2 µM (inactive) in the test with OVCAR-5; 25.9 µM (inactive) with PC-3. The GI50 with RPMI-8226 is 21 µM (inactive); in the test with SF-268, 31.3 µM (inactive); with SK-MEL-5, 17 µM (inactive); in the test on SK-OV-3, 49.9 µM (inactive); in the test on SNB-19 it was 16.4 µM (inactive); with SNB-75, 32.8 µM (inactive). The GI50 with SR was 10.6 µM (inactive); with UO-31 it was 18.1 µM (inactive).

For the molecule `Cc1nc(-n2nc(-c3ccccc3)cc2-c2ccccc2)sc1C(/C=C\c1ccc([N+](=O)[O-])cc1)=N/NC(=S)NN`, the GI50 in the test on A498 was > 100 µM (inactive); with CCRF-CEM, > 50.8 µM (inactive); with HL-60, > 52.5 µM (inactive); with HOP-62 it was 22 µM (inactive); with MDA-MB-231, > 10 µM (inactive); in the test with MDA-MB-435, > 100 µM (inactive). The GI50 in the test with MOLT-4 is > 52.5 µM (inactive); with NCI-H460, 33.5 µM (inactive); in the test with NCI-H522, 18.2 µM (inactive); with NCI/ADR-RES, 26.9 µM (inactive); in the test on OVCAR-5 it was 38.7 µM (inactive); in the test on PC-3, 28.2 µM (inactive). The GI50 is > 48.8 µM (inactive) with RPMI-8226; 26.4 µM (inactive) in the test on SF-268; 27.7 µM (inactive) with SK-MEL-5; > 85.7 µM (inactive) in the test with SK-OV-3; > 49.3 µM (inactive) in the test on SNB-19; 74.3 µM (inactive) in the test on SNB-75. In addition, the results for the concentration for 50% growth inhibition (GI50) in the test with SR and with UO-31 were 0.0948 µM (active) and > 43.9 µM (inactive), respectively.

With `Cc1ccc(S(=O)(=O)N2CCC[C@@H]2C(=O)O[C@@H]2CCC3CC=CC32)cc1` (some centres not stated), the GI50 in the test on A498 is 24.8 µM (inactive); with CCRF-CEM it was 24.8 µM (inactive); with HL-60, 11.5 µM (inactive); with HOP-62, 29.9 µM (inactive); with MDA-MB-231, 45.9 µM (inactive); with MDA-MB-435 it was 35.1 µM (inactive). The GI50 in the test with MOLT-4 was 17.6 µM (inactive); in the test on NCI-H460, 35.6 µM (inactive); in the test on NCI-H522, 18.9 µM (inactive); in the test on NCI/ADR-RES, 19.3 µM (inactive); in the test with OVCAR-5, 45.8 µM (inactive); in the test with PC-3 it was 21.4 µM (inactive). For the same molecule, the GI50 in the test with RPMI-8226 was 18.7 µM (inactive); in the test with SF-268, 15.1 µM (inactive); in the test with SK-MEL-5, 14.8 µM (inactive); in the test on SK-OV-3 it was 22.2 µM (inactive); with SNB-19, 34.4 µM (inactive); with SNB-75, 26.1 µM (inactive). Further, the GI50 in the test on SR was 11.6 µM (inactive); with UO-31, 13.6 µM (inactive).

For `COc1cc(C2c3cc4c(cc3OC(N3CCCC3)C2C)OCO4)cc(OC)c1OC` (configuration not stated), the GI50 in the test on A498 was 0.326 µM (active); with CCRF-CEM, 0.502 µM (active); in the test with HL-60, 0.355 µM (active); with HOP-62, 0.596 µM (active); in the test on MDA-MB-231, 0.697 µM (active); in the test with MDA-MB-435 it was 0.177 µM (active). For the same molecule, the GI50 in the test on MOLT-4 is 1.08 µM (active); in the test on NCI-H460, 0.767 µM (active); in the test on NCI-H522, 0.548 µM (active); with NCI/ADR-RES, 0.316 µM (active); with OVCAR-5, 1.09 µM (active); in the test with PC-3, 0.524 µM (active). For the same molecule, the GI50 in the test on RPMI-8226 is 1.08 µM (active); in the test on SF-268, 2.34 µM (inactive); in the test on SK-MEL-5, 0.344 µM (active); in the test with SK-OV-3, 0.628 µM (active); in the test with SNB-19, 1.21 µM (inactive); in the test on SNB-75, 0.443 µM (active). Besides, the GI50 with SR was 0.32 µM (active); in the test with UO-31, 1.91 µM (inactive).

Take `O=C1c2ccccc2CC12Cc1ccccc1C2`: the GI50 with A498 is > 100 µM (inactive); in the test with CCRF-CEM it was 48.3 µM (inactive); in the test on HL-60, 16.6 µM (inactive); in the test with HOP-62, 83.9 µM (inactive); with MDA-MB-231, 66.7 µM (inactive); with MDA-MB-435 it was 55 µM (inactive). For the same molecule, the GI50 with MOLT-4 is 35.7 µM (inactive); with NCI-H460, 57.9 µM (inactive); in the test with NCI-H522, 36.6 µM (inactive); in the test with NCI/ADR-RES, 25.2 µM (inactive); in the test with OVCAR-5, > 100 µM (inactive); in the test on PC-3, 42 µM (inactive). Also, the GI50 is 31.7 µM (inactive) in the test on RPMI-8226; 48 µM (inactive) with SF-268; 16.7 µM (inactive) in the test on SK-MEL-5; > 100 µM (inactive) with SK-OV-3; > 100 µM (inactive) in the test on SNB-19; 18.2 µM (inactive) with SNB-75. For the same molecule, the GI50 in the test on SR is 6.12 µM (inactive); in the test with UO-31 it was 40.1 µM (inactive).

For `CC(C)/C=N\N1C(N)=C(C#N)C(C#N)(C#N)C1C(C)C` (configuration not stated), the GI50 was 51.3 µM (inactive) with A498; 36.2 µM (inactive) in the test on CCRF-CEM; 32.4 µM (inactive) in the test on HL-60; 55.7 µM (inactive) with HOP-62; 29.9 µM (inactive) in the test with MDA-MB-231; 23.4 µM (inactive) with MDA-MB-435. The GI50 in the test on MOLT-4 is 34.8 µM (inactive); with NCI-H522 it was 62.1 µM (inactive); in the test on NCI/ADR-RES, 31.3 µM (inactive); with OVCAR-5, 50.2 µM (inactive); in the test on PC-3, 55.3 µM (inactive); in the test with RPMI-8226 it was 37.8 µM (inactive). Besides, the GI50 in the test with SF-268 was 56.6 µM (inactive); in the test on SK-MEL-5, 38.3 µM (inactive); in the test on SK-OV-3, > 100 µM (inactive); with SNB-19 it was > 100 µM (inactive); in the test on SNB-75, 42.8 µM (inactive); in the test on SR, 29.3 µM (inactive). In addition, the GI50 in the test on UO-31 is 38 µM (inactive).

`c1ccc(N/N=N/c2ccc(-c3nc4ccccc4[nH]3)cc2)nc1`: the GI50 with A498 was > 100 µM (inactive); with CCRF-CEM, 2.64 µM (inactive); in the test on HL-60 it was 50.8 µM (inactive); in the test on HOP-62, 16.6 µM (inactive); in the test with MDA-MB-231, 12.6 µM (inactive); in the test on MDA-MB-435, 21.6 µM (inactive). The GI50 was 4.43 µM (inactive) in the test on MOLT-4; 15.2 µM (inactive) in the test with NCI-H460; 16.8 µM (inactive) in the test with NCI-H522; 30.3 µM (inactive) in the test with NCI/ADR-RES; 26.3 µM (inactive) with OVCAR-5; 18.1 µM (inactive) with PC-3. Also, the GI50 with RPMI-8226 is 2.05 µM (inactive); with SK-MEL-5, 27.6 µM (inactive); in the test with SK-OV-3 it was 14.7 µM (inactive); with SNB-19 it was 20.8 µM (inactive); with SNB-75 it was 21.6 µM (inactive); in the test on SR, 2.12 µM (inactive). For the same molecule, the GI50 in the test on UO-31 was 19.4 µM (inactive).

Regarding `CC[C@]1(Cc2ccc(OC)c(OC)c2)C=[N+]([O-])O[C@H](OC2CCCCC2c2ccccc2)[C@@H]1OC(C)=O` (some centres not stated), the GI50 in the test on A498 is > 100 µM (inactive); in the test with CCRF-CEM, 23.2 µM (inactive); in the test with HL-60 it was 18.1 µM (inactive); in the test with HOP-62, 64.6 µM (inactive); with MDA-MB-231 it was 75.3 µM (inactive); in the test on MDA-MB-435, 50.6 µM (inactive). The GI50 in the test on MOLT-4 is 17.3 µM (inactive); in the test with NCI-H460 it was 37.5 µM (inactive); with NCI-H522 it was 25.6 µM (inactive); in the test with NCI/ADR-RES, 41.8 µM (inactive); in the test on OVCAR-5, > 100 µM (inactive); in the test on PC-3 it was 31.8 µM (inactive). Moreover, the GI50 was 21.1 µM (inactive) in the test with RPMI-8226; 38.1 µM (inactive) in the test on SK-MEL-5; 84.9 µM (inactive) in the test on SK-OV-3; 92.5 µM (inactive) in the test on SNB-19; 32.2 µM (inactive) with SNB-75; 22.8 µM (inactive) in the test with SR. Moreover, the GI50 with UO-31 is 41.2 µM (inactive).
